Test results: patent US20230365595A1, “INHIBITORS OF KRAS(G12D)” (Ranok Therapeutics (Hangzhou) Co. Ltd., priority 2022, published 2023)

Legend:
[1] = Oral bioavailability in CD-1 mice; conditions: male, CD-1, mouse, blood, 50 mg/kg
Experimental: (§3) CD-1 mice were randomly assigned to δgroups with 3 male mice in each compound group. […] Compounds were orally administered (PO) in a single dose to each mouse in its group. Blood samples were taken within 72 hours. Bioavailability (F%) was determined and by liquid chromatography-mass spectrometry (LC-MS/MS).

AGS cells = assay: CellTiter-Glo cell cytotoxicity, AGS; format: cell-based; conditions: AGS human gastric adenocarcinoma, 1 copy of KRAS(G12D), read-out: AGS 72H CTG
Experimental: (§1) The following cancer cell lines were employed: A427 human lung carcinoma [1 copy of KRAS(G12D)] (ATCC, #HTB-53); AGS human gastric adenocarcinoma [1 copy of KRAS(G12D)] (ATCC, #CRL-1739); and AsPC-1 human adenocarcinoma [2 copies of KRAS(G12D)] (ATCC, CRL-1682). Cell lines were cultured essentially according to American Type Culture Collection (ATCC) recommendations.
A427 and AGS cells were plated in 96-well tissue culture plates at 4,000 cells/well and incubated at 37° C/5% CO2 for 72 hr in 100 μl of media. 3-fold serial dilutions of each test compound were prepared ranging from 20 μM to 1.02 nM. […]
(§2) […] 100 Ill of CellTiter-Glo® Reagent (Promega Corporation, Madison, WI) was added to each well and processed according manufacturer's protocol. Results were analyzed and IC50 values were calculated in GraphPad 7 software.

A427 cells = assay: CellTiter-Glo cell cytotoxicity, A427; format: cell-based; conditions: A-427, 72 h, A427 human lung carcinoma, 1 copy of KRAS(G12D), read-out: A427 72H CTG
Experimental: as §1
A427 and AGS cells were plated in 96-well tissue culture plates at 4,000 cells/well and incubated at 37° C/5% CO2 for 72 hr in 100 μl of media. 3-fold serial dilutions of each test compound were prepared ranging from 20 μM to 1.02 nM. Each cell line was then treated with test compounds at various concentrations with a final concentration of 0.5%
as §2

KRAS(G12D)-SOS1 = molecular target: T1, KRAS(G12D)-SOS1 (Homo sapiens, UniProt P01116, G12D); assay: KRAS(G12D)/SOS1 HTRF binding assay; conditions: absence of GTP; 4° C. for 3 hr
T1 construct: purchased Cisbio 63ADK000CB16PEG
T1 sequence (P01116 1-188 isoform P01116-2 G12D): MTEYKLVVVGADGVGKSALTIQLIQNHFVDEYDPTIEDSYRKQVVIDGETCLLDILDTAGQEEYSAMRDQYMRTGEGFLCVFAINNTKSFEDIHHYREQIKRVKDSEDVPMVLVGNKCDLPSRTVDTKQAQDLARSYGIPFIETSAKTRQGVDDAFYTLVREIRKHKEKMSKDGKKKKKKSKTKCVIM
Experimental: Binding of test compounds to KRAS(G12D) target protein, which in turn blocks KRAS(G12D) interaction with the SOS1 protein, was measured in the absences of GTP by homogeneous time-resolved fluorescence using the KRAS-G12D/SOS1 Binding Assay Kit (Cisbio, #63ADK000CB16PEG), following the manufacturer's instructions, except as noted. 3-fold serial dilutions of each test compound were prepared ranging from 20 μM to 1.02 nM. The test compound was mixed and incubated with reaction components, incubated in a sealed plate at 4° C. for 3 hr and fluorescence was measured using a PerkinElmer Envision plate reader. The KRAS(G12D)-SOS1 IC50 values (the concentration of 50% of the maximal inhibition) were calculated using GraphPad Prism 7 software.

in vivo = conditions: male, CD-1, mouse, po, 50 mg/kg
Experimental: as §3

| SMILES | bioavailability [1] [%] | IC50 (AGS cells) [nM] | IC50 (A427 cells) [nM] | also measured |
| --- | --- | --- | --- | --- |
| C#Cc1c(F)ccc2cc(O)cc(-c3ncc4c(N5CC6CCC(C5)N6C(=O)C(F)(F)F)nc(OCC5(CN6CCC(F)CC6)CC5)nc4c3F)c12 [drawing 116] | 12.4 |  |  |  |
| C#Cc1c(F)ccc2cc(O)cc(-c3ncc4c(N5CC6CCC(C5)N6)nc(OCC5(CN6CC7CC7C6)CC5)nc4c3F)c12 (stereo not drawn) [drawing 121] | 0.47 |  |  |  |
| C#Cc1c(F)ccc2cc(O)cc(-c3ncc4c(N5CC6CCC(C5)N6)nc(OCC5(CN6CCC(F)CC6)CC5)nc4c3F)c12 [drawing 111] |  | 1 to 100 | 1 to 100 |  |
| C#Cc1c(F)ccc2cc(O)cc(-c3ncc4c(N5CC6CCC(C5)N6)nc(OCC5(CN6CCC(F)CC6)CC5)nc4c3F)c12 [drawing 117] | 0.82 |  |  |  |
| C#Cc1c(F)ccc2cc(O)cc(-c3ncc4c(N5CC6CCC(C5)N6C(=O)C(F)(F)F)nc(OC[C@]56CCCN5C[C@@H](F)C6)nc4c3F)c12 [drawing 118] | 15.8 |  |  |  |
| C#Cc1c(F)ccc2cc(O)cc(-c3ncc4c(N5CC6CCC(C5)N6)nc(OCC5(CN6CC7CC7C6)CC5)nc4c3F)c12 (stereo not drawn) [drawing 115] |  | 1 to 100 | 1 to 100 | IC50 (KRAS(G12D)-SOS1): 1 to 100 nM |
| C#Cc1c(F)ccc2cc(O)cc(-c3ncc4c(N5CC6CCC(C5)N6C(=O)C(F)(F)F)nc(OC[C@]56CCCN5C[C@@H](F)C6)nc4c3F)c12 [drawing 112] |  | 1 to 100 | 1000 to 10000 |  |
| C#Cc1c(F)ccc2cc(O)cc(-c3ncc4c(N5CC6CCC(C5)N6)nc(OC[C@]56CCCN5C[C@@H](F)C6)nc4c3F)c12 | 0.45 |  |  |  |
| C#Cc1c(F)ccc2cc(O)cc(-c3ncc4c(N5CC6CCC(C5)N6C(=O)C(F)(F)F)nc(OCC5(CN6CC7CC7C6)CC5)nc4c3F)c12 (stereo not drawn) [drawing 114] |  | 1 to 100 | 1000 to 10000 |  |
| C#Cc1c(F)ccc2cc(O)cc(-c3ncc4c(N5CC6CCC(C5)N6C(=O)C(F)(F)F)nc(OCC5(CN6CC7CC7C6)CC5)nc4c3F)c12 (stereo not drawn) [drawing 120] |  |  |  | bioavailability (in vivo): 17.4% |
| C#Cc1c(F)ccc2cc(O)cc(-c3ncc4c(N5CC6CCC(C5)N6C(=O)C(F)(F)F)nc(OCC5(CN6CCC(F)CC6)CC5)nc4c3F)c12 [drawing 110] |  | 1 to 100 | 1 to 100 | IC50 (KRAS(G12D)-SOS1): 1 to 100 nM |
